The values that follow come from PMC2882941 (Pharmaceutical research, 2009).

For this data set, the target named is T1, hASBT (Homo sapiens, UniProt Q12908).
T1 sequence (Q12908 1-348): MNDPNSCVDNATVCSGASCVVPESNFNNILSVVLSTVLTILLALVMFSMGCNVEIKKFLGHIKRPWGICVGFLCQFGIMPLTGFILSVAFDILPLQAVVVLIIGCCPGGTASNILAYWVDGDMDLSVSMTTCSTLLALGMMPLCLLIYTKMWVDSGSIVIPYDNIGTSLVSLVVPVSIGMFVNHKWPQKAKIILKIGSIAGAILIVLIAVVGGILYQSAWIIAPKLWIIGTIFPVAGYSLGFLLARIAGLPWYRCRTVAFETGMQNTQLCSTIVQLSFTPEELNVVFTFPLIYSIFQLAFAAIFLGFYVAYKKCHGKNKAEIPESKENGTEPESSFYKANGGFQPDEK
Briefly: in vitro. The conditions noted are these: MDCK.

In the case of `C[C@H](CCC(=O)NCCS(=O)(=O)O)[C@H]1CC[C@H]2[C@@H]3[C@H](O)C[C@@H]4C[C@H](O)CC[C@]4(C)[C@H]3C[C@H](O)[C@]12C` [TCA, Taurocholate], the Papp (in general, a coefficient for how fast a substance crosses the barrier) is 0.089 to 0.3 ×10⁻⁶ cm/s.
